Measurements taken from ChEMBL document CHEMBL1201862, “PubChem BioAssay data set” (2004).
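48-hour exposure; five concentrations; linearly interpolated endpoints. At the GI50, growth is halved.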 Calls of active or inactive are those of the source. No stated cut-off is given here; in the data, active = GI50 up to about 1.1 µM and inactive = higher.

How the values were obtained:
Assay in all cases: NCI-60 cell line screen, 48 h
[1] = test system: A498
[2] = test system: SK-MEL-28
[3] = test system: LOX IMVI
[4] = test system: OVCAR-3
[5] = test system: SK-MEL-5
[6] = test system: NCI/ADR-RES
[7] = test system: HOP-62
[8] = test system: U-251
[9] = test system: IGROV-1
[10] = test system: MCF7
[11] = test system: SF-539
[12] = test system: EKVX
[13] = test system: MOLT-4
[14] = test system: SN12C
[15] = test system: COLO 205
[16] = test system: HCT-116
[17] = test system: CCRF-CEM
[18] = test system: CAKI-1
[19] = test system: SK-OV-3
[20] = test system: NCI-H460

Row | Compound | GI50 [1] | GI50 [2] | GI50 [3] | GI50 [4] | GI50 [5] | GI50 [6] | GI50 [7] | GI50 [8] | GI50 [9] | GI50 [10] | GI50 [11] | GI50 [12] | GI50 [13] | GI50 [14] | GI50 [15] | GI50 [16] | GI50 [17] | GI50 [18] | GI50 [19] | GI50 [20]
1 | COc1cccc2c1C(=O)c1c(O)c3c(c(O)c1C2=O)C[C@@](O)(C(=O)CO)C[C@@H]3OC1CC(N2CCOCC2)C(O)C(C)O1 (stereo not given in full) | 3.15 nM (active) | 2.7 nM (active) | 2.5 nM (active) | 2.5 nM (active) | 2.5 nM (active) | 2.52 nM (active) | 19.9 nM (active) | 2.5 nM (active) | 13.1 nM (active) | 2.5 nM (active) | 2.5 nM (active) | 15.9 nM (active) | 3.33 nM (active) | 15.6 nM (active) | 3.25 nM (active) | 2.5 nM (active) | 3.23 nM (active) | 9.48 nM (active) | 2.92 nM (active) | 2.5 nM (active)
2 | CC(C)NC(=O)CN1CCN(C2=C(Cl)C(=O)c3c(O)ccc(O)c3C2=O)CC1 | 3050 nM (inactive) | 1660 nM (inactive) | 650 nM (active) | 1570 nM (inactive) | 2000 nM (inactive) | 2380 nM (inactive) | 7450 nM (inactive) | 3310 nM (inactive) | 2390 nM (inactive) | 1490 nM (inactive) | 1970 nM (inactive) | 3720 nM (inactive) | 360 nM (active) | 1680 nM (inactive) | 1310 nM (inactive) | 1200 nM (inactive) | 293 nM (active) | 2170 nM (inactive) | 10100 nM (inactive) | 7500 nM (inactive)
3 | CC(=O)OC1CC2(O)C(CCC3(C)C(c4ccc(=O)oc4)CCC32O)C2(C)C1=CC(O)C1OC12 (stereo not given) | 113 nM (active) | 62.1 nM (active) | 68.7 nM (active) | 31.6 nM (active) | 25 nM (active) | 37.8 nM (active) | 50 nM (active) | 76.2 nM (active) | 65.3 nM (active) | 55.2 nM (active) | 37.5 nM (active) | 42 nM (active) | 28.1 nM (active) | 34.9 nM (active) | 72.6 nM (active) | 29.6 nM (active) | 26.7 nM (active) | 32.4 nM (active) | 84.3 nM (active) | 27.9 nM (active)
4 | Cc1ccc2cc3cccc(C(=O)NCCN(C)C)c3nc2c1 | 419 nM (active) | 1630 nM (inactive) | 818 nM (active) | 1360 nM (inactive) | 1320 nM (inactive) | 771 nM (active) | 923 nM (active) | 1660 nM (inactive) | 1420 nM (inactive) | 681 nM (active) | 1380 nM (inactive) | 1140 nM (inactive) | 321 nM (active) | 893 nM (active) | 483 nM (active) | 459 nM (active) | 679 nM (active) | 275 nM (active) | 1570 nM (inactive) | 315 nM (active)
5 | Oc1c(CNCCCN2CCCC2)cc(Cl)c2cccnc12 | 15000 nM (inactive) | 11200 nM (inactive) | 3010 nM (inactive) | 2140 nM (inactive) | 1360 nM (inactive) | 1480 nM (inactive) | 2660 nM (inactive) | 4090 nM (inactive) | 6850 nM (inactive) | 4560 nM (inactive) | 2870 nM (inactive) | 1750 nM (inactive) | 2770 nM (inactive) | 5640 nM (inactive) | 3790 nM (inactive) | 2610 nM (inactive) | 2340 nM (inactive) | 3030 nM (inactive) | 4130 nM (inactive) | 2880 nM (inactive)
